Here are results for 5 compounds from patent US20250115597A1, “TYK2 INHIBITORS AND COMPOSITIONS AND METHODS THEREOF” (LYNK PHARMACEUTICALS CO. LTD., priority 2021, published 2025).

One data set relates to pSTAT1. Briefly: Phosphorylation inhibition of STAT in human whole blood, IFN-alpha stimulated (flow cytometry). The data set is classed as cell-based. To be noted: 20 min; human whole blood, IFN-alpha 20 mins, CD3 cells; read-out: IC50 on pSTAT1 inhibition in h WB. An outline of the steps: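 Readout is pSTAT1 (Y701) in CD3-stained cells by flow cytometry, with IC50 derived from a 4-parameter logistic equation. Fresh human PBMC or fresh whole blood received a 20-min Universal Type I IFN-alpha stimulation before fixation and cold permeabilization.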
A general note: Flow cytometry measures light scatter and fluorescence of single cells or particles in a stream.

The nature of data set [1]: Hepatocytes metabolic stability assay. The data set is classed as in vitro ADME. To be noted: cryopreserved hepatocytes, human hepatocytes, 1.0×10^6 cells/mL; for CLint scaled at 1 μM: read-out: Human hepatocyte Clint(liver); for half-life at 1 μM: read-out: Human hepatocyte stability T1/2. An outline of the steps:
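Cryopreserved hepatocytes (1.0×10^6 cells/mL final) were incubated with test compound at 1 μM at 37 °C and sampled at 0, 15, 30, 60 and 120 min, with acetonitrile quench and LC-MS/MS. k came from log-linear % remaining versus time, giving T1/2 and CLint.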

The next data set concerns the target T1, TYK2 (Homo sapiens, UniProt P29597).
T1 construct: purchased Carna Biosciences
In words: TYK2 kinase activity, microfluidic assay (Caliper EZ Reader II). The class given is biochemical. The following applies: TYK2 1 nM, 1 mM ATP. The procedure, abridged:
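Human JAK1, JAK2 or TYK2 enzyme was used in 50 mM HEPES, 10 mM MgCl2, 2 mM DTT and 0.01% Brij35, tuned to 10% conversion of a FAM-labelled peptide. Threefold dilutions of compound (top 5 µM, 1% DMSO) were pre-incubated with enzyme for 10 min, and reactions were stopped with EDTA. Phosphorylation was read by microfluidic mobility shift, and IC50 came from percent-inhibition curves.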

Data set [2] is described as follows: Microsomal metabolic stability assay. The class given is in vitro ADME. To be noted: pH 7.4, 0.5 mg/mL protein, 1 μM compound. The procedure, abridged:
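Parent loss was tracked by LC/MS/MS at 0, 5, 15, 30 and 45 min, with half-life derived from the ln(% remaining)–time slope. Incubation at 37 °C, pH 7.4 phosphate/EDTA buffer: 0.5 mg/mL microsomes, 1 μM compound, NADPH-regenerated (2 mM).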

The mark [3] stands for this setting: dog liver microsomes, read-out: Dog LM Clint.
Where [4] appears, read: dog liver microsomes, read-out: Dog LM T½.
Setting [5] is: human liver microsomes, read-out: Human LM Clint.
Setting [6] is: human liver microsomes, read-out: Human LM T½.
[7] abbreviates: rat liver microsomes, read-out: Rat LM Clint.
[8] abbreviates: rat liver microsomes, read-out: Rat LM T½.

Broadly, the IC50 is the concentration needed to halve the response being measured.

Where two headings read alike, the source gives them in different places.

T1 sequence (P29597 whole entry): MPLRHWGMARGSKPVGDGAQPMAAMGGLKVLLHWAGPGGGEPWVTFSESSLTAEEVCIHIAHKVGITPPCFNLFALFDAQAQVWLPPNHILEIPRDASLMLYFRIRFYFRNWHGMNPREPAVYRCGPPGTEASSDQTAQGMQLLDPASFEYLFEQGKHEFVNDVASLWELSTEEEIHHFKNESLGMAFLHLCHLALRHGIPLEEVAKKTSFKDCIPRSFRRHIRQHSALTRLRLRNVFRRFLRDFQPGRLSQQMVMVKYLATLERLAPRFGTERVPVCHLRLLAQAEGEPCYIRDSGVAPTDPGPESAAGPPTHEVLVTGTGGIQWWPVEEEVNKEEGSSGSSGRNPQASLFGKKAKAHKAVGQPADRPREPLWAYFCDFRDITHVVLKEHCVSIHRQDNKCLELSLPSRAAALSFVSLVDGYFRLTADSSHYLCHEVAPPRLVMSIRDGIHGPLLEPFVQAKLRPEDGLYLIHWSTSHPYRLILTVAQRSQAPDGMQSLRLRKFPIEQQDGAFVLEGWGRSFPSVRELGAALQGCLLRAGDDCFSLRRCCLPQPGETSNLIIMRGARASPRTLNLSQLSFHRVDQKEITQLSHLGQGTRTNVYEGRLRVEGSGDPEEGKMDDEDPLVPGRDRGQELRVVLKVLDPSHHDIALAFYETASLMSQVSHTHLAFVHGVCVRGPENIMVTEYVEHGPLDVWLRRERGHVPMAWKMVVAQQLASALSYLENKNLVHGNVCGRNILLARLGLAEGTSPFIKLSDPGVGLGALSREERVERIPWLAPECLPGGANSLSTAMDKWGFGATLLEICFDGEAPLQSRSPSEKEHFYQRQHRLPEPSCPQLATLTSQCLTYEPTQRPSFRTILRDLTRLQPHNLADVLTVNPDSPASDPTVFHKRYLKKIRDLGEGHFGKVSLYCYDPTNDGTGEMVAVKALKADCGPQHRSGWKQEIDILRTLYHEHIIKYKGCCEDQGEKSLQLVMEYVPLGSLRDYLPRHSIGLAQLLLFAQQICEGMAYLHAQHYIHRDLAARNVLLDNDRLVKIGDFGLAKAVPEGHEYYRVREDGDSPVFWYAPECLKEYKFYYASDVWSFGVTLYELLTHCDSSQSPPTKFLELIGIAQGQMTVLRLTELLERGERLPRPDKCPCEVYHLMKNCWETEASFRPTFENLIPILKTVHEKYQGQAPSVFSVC

Regarding `[2H]C([2H])([2H])NC(=O)c1cnc(NC(=O)C2CC2)cc1Nc1ccc2cnn(CC)c2c1OC` [Example 44, 6-(Cyclopropanecarboxamido)-4-((1-ethyl-7-methoxy-1H-indazol-6-yl)amino)-N-(methyl-d3)nicotinamide], the IC50 in the data set on pSTAT1 was 219 nM; against TYK2, over 5000 nM. Besides, the CLint scaled at 1 μM in data set [1] was determined as 43.1 mL/min/kg. The half-life at 1 μM in data set [1] is 89.4 min; in data set [2] (setting [4]), 20.7 min; in data set [2] (setting [6]) it was 71.5 min; in data set [2] (setting [8]), 12.5 min. The microsomal CLint at 1 μM in data set [2] (setting [3]) came out at 66.8 µL/min/mg; in data set [2] (setting [5]) it was 19.4 µL/min/mg; in data set [2] (setting [7]) it was 111 µL/min/mg.

Turning to `[2H]C([2H])([2H])NC(=O)c1cnc(NC(=O)C2CC2)cc1Nc1ccn2ncc(C#N)c2c1OC` [Example 165, 4-((3-Cyano-4-methoxypyrazolo[1,5-a]pyridin-5-yl)amino)-6-(cyclopropanecarboxamido)-N-(methyl-d3)nicotinamide], the IC50 is 284 nM with pSTAT1 and over 5000 nM on TYK2. The CLint scaled at 1 μM in data set [1] is under 7.35 mL/min/kg. For the same compound, the half-life at 1 μM was over 240 min in data set [1], 99.7 min in data set [2] (setting [4]), 38 min in data set [2] (setting [6]) and 32 min in data set [2] (setting [8]). In addition, the microsomal CLint at 1 μM amounted to 14.3 µL/min/mg in data set [2] (setting [3]), 36.9 µL/min/mg in data set [2] (setting [5]) and 43.6 µL/min/mg in data set [2] (setting [7]).

As to `[2H]C([2H])([2H])NC(=O)c1cnc(NC(=O)C2CC2)cc1Nc1ccc2cnn(CC(F)(F)F)c2c1OC` [Example 129, 6-(Cyclopropanecarboxamido)-4-((7-methoxy-1-(2,2,2-trifluoroethyl)-1H-indazol-6-yl)amino)-N-(methyl-d3)nicotinamide], in the data set with pSTAT1, the 50% inhibitory concentration (IC50) amounted to 395 nM. Besides, the microsomal CLint at 1 μM in data set [2] (setting [3]) was determined as 48.6 µL/min/mg; in data set [2] (setting [5]), 40 µL/min/mg; in data set [2] (setting [7]) it was 87.4 µL/min/mg. The half-life at 1 μM amounted to 28.5 min in data set [2] (setting [4]), 34.6 min in data set [2] (setting [6]) and 15.9 min in data set [2] (setting [8]).

For `[2H]C([2H])([2H])NC(=O)c1cnc(Nc2ccc(F)cn2)cc1Nc1nn(C)c2ccn(CC)c(=O)c12` [Example 139, 4-((5-Ethyl-1-methyl-4-oxo-4,5-dihydro-1H-pyrazolo[4,3-c]pyridin-3-yl)amino)-6-((5-fluoropyridin-2-yl)amino)-N-(methyl-d3)nicotinamide], in the data set with pSTAT1, the IC50 was found to be 1180 nM. For the same compound, the CLint scaled at 1 μM in data set [1] is under 7.35 mL/min/kg. Also, the half-life at 1 μM in data set [1] was over 240 min; in data set [2] (setting [6]), 59.8 min. The microsomal CLint at 1 μM in data set [2] (setting [5]) was determined as 23.3 µL/min/mg.

Turning to `[2H]C([2H])([2H])NC(=O)c1cnc(NC(=O)C2CC2)cc1Nc1ncc2cnn(CC)c2c1OC` [Example 262, 6-(Cyclopropanecarboxamido)-4-((1-ethyl-7-methoxy-1H-pyrazolo[4,3-c]pyridin-6-yl)amino)-N-(methyl-d3)nicotinamide], the concentration for half-maximal inhibition (IC50) with pSTAT1 was 102 nM. Further, in data set [1], the CLint scaled at 1 μM was determined as 18.5 mL/min/kg and the half-life at 1 μM stood at 95.2 min. In addition, the half-inhibitory concentration (IC50) at TYK2 was over 5000 nM.
